This note sets out measurements from patent US20250213665A1, “METHODS FOR INHIBITING TRAINED IMMUNITY WITH NANOBIOLOGIC COMPOSITIONS” (Icahn School of Medicine at Mount Sinai, priority 2017, published 2025).

The nature of the data set: Recovery and hydrolysis of the (pro-)drugs in nanobiologics. Format: physicochemical. The note with it: 4° C. in PBS. How it is done:
From 10 mg/ml stock solutions in chloroform, 1-palmitoyl-2-oleoyl-sn-glycero-3-phosphocholine (POPC, 250 μL), 1-palmitoyl-2-hydroxy-sn-glycero-3-phosphocholine (PHPC, 65 μL), cholesterol (15 μL), tricaprylin (1000 μL) and (pro-)drug (65 μL), were combined in a 20 ml vial and dried under vacuum. The resulting film was redissolved in a acetonitrile:methanol mixture (95%: 5%, 3 mL total volume). Separately, a solution of ApoA-I protein in PBS (0.1 mg/ml) was prepared. Using a microfluidic set-up, both solutions were simultaneously injected into a herringbone mixer, with a flow rate of 0.75 ml/min for the lipid solution and a rate of 6 ml/min for the ApoA-I solution. The obtained solution was concentrated by centrifugal filtration using a […] Vivaspin tube at 4000 rpm to obtain a volume of 5 mL. […]
(Pro-)drug recovery and hydrolysis were determined using the following procedure: an aliquot (200 μL) of the particle solution was dried under vacuum, acetonitrile (600 μL) was added and the suspension was sonicated for 20 minutes. The suspension was centrifuged to precipitate any solids and the remaining solution was analyzed using HPLC; except for the malonate derivatives which were analyzed using SFC-MS, and Dimethylmalonate which was analyzed by GC-MS.

Turning to `CCCCCCCCCCCCCCCCCC(=O)O[C@@H]1CC[C@@H](C[C@@H](C)[C@@H]2CC(=O)[C@H](C)/C=C(\C)[C@@H](O)[C@@H](OC)C(=O)[C@H](C)C[C@H](C)/C=C/C=C/C=C(\C)[C@@H](OC)C[C@@H]3CC[C@@H](C)[C@@](O)(O3)C(=O)C(=O)N3CCCC[C@H]3C(=O)O2)C[C@H]1OC` [Cis-Rapamycin], the “hydrolysis of the (pro-)drugs in the nanobiologics over time” value was “hydrolysis was observed”.
